Measurements: PMC6112376, “Comprehensive Analyses and Prioritization of Tox21 10K Chemicals Affecting Mitochondrial Function by in-Depth Mechanistic Studies” (Environmental Health Perspectives, 2018)

Experiments:
rat primary hepatocytes [1] = system: rat primary hepatocytes
[2] = system: p53 (p53-bla HCT-116 cells); assay: p53 β-lactamase reporter gene assay; type: cell-based, human; settings: Homo sapiens; 16 h incubation; mean±SD of three experiments
[3] = system: Caenorhabditis elegans strain PE255; assay: In vivo C. elegans ATP status assay
HepG2 cells [4] = assay: cells; settings: Homo sapiens, HepG2, 1 h
[5] = system: isolated rat liver mitochondria; assay: Oxygen consumption, Clark-type oxygen electrode; type: biochemical
HepG2 cells [6] = assay: Intracellular ATP content (cell viability) assay; type: cell-based, human; settings: Homo sapiens, HepG2, 40 h
hNSC = assay: MMP assay in human neural stem cells (hNSC); type: cell-based; settings: Homo sapiens, Neural stem cell, 1 h, read-out: hNSC IC50 (MMP)
[7] = system: HeLa cells expressing YFP-Parkin; assay: Parkin translocation assay; type: cell-based, human
[8] = system: Nrf2/ARE (ARE-bla HepG2 cells); assay: ARE β-lactamase reporter gene assay; type: cell-based, human; settings: Homo sapiens, HepG2; 16 h incubation; mean±SD of three experiments; read-out: ARE (HepG2) EC50
[9] = system: Caenorhabditis elegans (Bristol N2); assay: C. elegans larval development and growth assay
HepG2 cells [10] = assay: ROS-Glo hydrogen peroxide (ROS) assay; type: cell-based, human; settings: Homo sapiens, HepG2, 2 h, read-out: ROS (HepG2) EC50
rat primary hepatocytes [11] = assay: MMP assay in rat primary hepatocytes; settings: Rattus norvegicus, Hepatocyte, 1 h, read-out: Rat hepatocytes IC50 (MMP)

CCC(C)c1cc([N+](=O)[O-])cc([N+](=O)[O-])c1O (stereo not shown) [Dinoseb]
Rat hepatocytes (efficacy) (MMP) (rat primary hepatocytes [1]): 4.50±0.81 ( −130±39.0 ) % | EC50 [2]: 2.63 ± 1.78 µM | LUM: mean difference in luminescence (ATP content) relative to plate controls ([3]; 0.5 µM): 0.1603 | LUM: mean difference in luminescence (ATP content) relative to plate controls ([3]; 1 µM): 0.2694 | LUM: mean difference in luminescence (ATP content) relative to plate controls ([3]; 5 µM): 0.2298 | LUM: mean difference in luminescence (ATP content) relative to plate controls ([3]; 10 µM): 0.4579 | LUM: mean difference in luminescence (ATP content) relative to plate controls ([3]; 25 µM): 0.5745 | LUM: mean difference in luminescence (ATP content) relative to plate controls ([3]; 50 µM): 0.9424 | LUM: mean difference in luminescence (ATP content) relative to plate controls ([3]; 75 µM): 1.122 | LUM: mean difference in luminescence (ATP content) relative to plate controls ([3]; 100 µM): 1.3353 | minimal effective concentration ([3]; Caenorhabditis elegans, read-out: LEC LUM: lowest effect concentration for luminescence, a measure of nematode ATP content): 50 µM | IC50 (HepG2 cells [4]; read-out: HepG2 IC50 Galactose (MMP)): 16.5 µM | IC50 (HepG2 cells [4]; read-out: HepG2 IC50 Glucose (MMP)): 12.4 µM | Potential Mechanism [5]: Uncoupler at low concentrations (0.032-0.16 µM), and Uncoupler + inhibitor at high concentrations (0.8-100 µM) | I-ADP, % of control (O2 consumption rate) ([5]; 0.0064 µM): 89 (38.7) % of control | I-sub, % of control (O2 consumption rate) ([5]; 0.0064 µM): 118 (15.5) % of control | II-ADP, % of control (O2 consumption rate) ([5]; 0.0064 µM): 98 (66.3) % of control | II-sub, % of control (O2 consumption rate) ([5]; 0.0064 µM): 122 (25.5) % of control | I-ADP, % of control (O2 consumption rate) ([5]; 0.032 µM): 97 (42.2) % of control | I-sub, % of control (O2 consumption rate) ([5]; 0.032 µM): 131 (17.2) % of control | II-ADP, % of control (O2 consumption rate) ([5]; 0.032 µM): 92 (62.6) % of control | II-sub, % of control (O2 consumption rate) ([5]; 0.032 µM): 137 (28.6) % of control | I-ADP, % of control (O2 consumption rate) ([5]; 0.16 µM): 106 (46.2) % of control | I-sub, % of control (O2 consumption rate) ([5]; 0.16 µM): 181 (23.7) % of control | II-ADP, % of control (O2 consumption rate) ([5]; 0.16 µM): 98 (66.1) % of control | II-sub, % of control (O2 consumption rate) ([5]; 0.16 µM): 199 (41.5) % of control | I-ADP, % of control (O2 consumption rate) ([5]; 0.8 µM): 138 (59.9) % of control | I-sub, % of control (O2 consumption rate) ([5]; 0.8 µM): 423 (55.4) % of control | II-ADP, % of control (O2 consumption rate) ([5]; 0.8 µM): 59 (40.0) % of control | II-sub, % of control (O2 consumption rate) ([5]; 0.8 µM): 193 (40.3) % of control | I-ADP, % of control (O2 consumption rate) ([5]; 4 µM): 111 (48.1) % of control | I-sub, % of control (O2 consumption rate) ([5]; 4 µM): 347 (45.5) % of control | II-ADP, % of control (O2 consumption rate) ([5]; 4 µM): 28 (19.1) % of control | II-sub, % of control (O2 consumption rate) ([5]; 4 µM): 96 (20.0) % of control | I-ADP, % of control (O2 consumption rate) ([5]; 20 µM): 70 (30.6) % of control | I-sub, % of control (O2 consumption rate) ([5]; 20 µM): 242 (31.7) % of control | II-ADP, % of control (O2 consumption rate) ([5]; 20 µM): 18 (12.1) % of control | II-sub, % of control (O2 consumption rate) ([5]; 20 µM): 64 (13.3) % of control | I-ADP, % of control (O2 consumption rate) ([5]; 100 µM): 13 (6.5) % of control | I-sub, % of control (O2 consumption rate) ([5]; 100 µM): 33 (7.1) % of control | II-ADP, % of control (O2 consumption rate) ([5]; 100 µM): 12 (6.9) % of control | II-sub, % of control (O2 consumption rate) ([5]; 100 µM): 22 (7.8) % of control | IC50 (HepG2 cells [6]; read-out: ATP (HepG2, galactose) IC50): 32.6 µM | IC50 (HepG2 cells [6]; read-out: ATP (HepG2, glucose) IC50): 36.8 µM | IC50 (hNSC): 22.3 µM | Parkin recruitment [7]: Active | EC50 [8]: 0.76 ± 0.13 µM | EXT: mean difference in nematode size relative to plate controls ([9]; 0.5 µM): -0.01247 | EXT: mean difference in nematode size relative to plate controls ([9]; 1 µM): -0.02122 | EXT: mean difference in nematode size relative to plate controls ([9]; 5 µM): -0.00308 | EXT: mean difference in nematode size relative to plate controls ([9]; 10 µM): 0.1196 | EXT: mean difference in nematode size relative to plate controls ([9]; 25 µM): 0.1256 | EXT: mean difference in nematode size relative to plate controls ([9]; 50 µM): 0.4169 | EXT: mean difference in nematode size relative to plate controls ([9]; 75 µM): 0.7162 | EXT: mean difference in nematode size relative to plate controls ([9]; 100 µM): 0.9301 | minimal effective concentration ([9]; Caenorhabditis elegans, read-out: LEC EXT: lowest effect concentration for extinction, a measure of nematode size): 50 µM | EC50 (HepG2 cells [10]): 27.6 µM | IC50 (rat primary hepatocytes [11]): 4.5 µM
